Experimental data published in ChEMBL document CHEMBL1159211, “Antifungal evaluation of pseudolaric acid B, a major constituent of Pseudolarix kaempferi” (J Nat Prod, 1995).
Activity calls are given as the source filed them. The calls are words filed in the database; no cut-off is given here.

How the values were obtained:
[1] = tested on: Candida albicans; assay: Antimicrobial activity against Candida albicans at 1 mg/mL by agar-well diffusion assay; type: functional; conditions: Candida albicans; read-out: IZ
[2] = tested on: Aspergillus flavus; assay: Antimicrobial activity against Aspergillus flavus at 1 mg/mL by agar-well diffusion assay; type: functional
[3] = tested on: Aspergillus fumigatus; assay: Antimicrobial activity against Aspergillus fumigatus at 1 mg/mL by agar-well diffusion assay; type: functional
[4] = tested on: Cryptococcus neoformans; assay: Antimicrobial activity against Cryptococcus neoformans at 1 mg/mL by agar-well diffusion assay; type: functional
[5] = tested on: Trichophyton mentagrophytes; assay: Antimicrobial activity against Trichophyton mentagrophytes at 1 mg/mL by agar-well diffusion assay; type: functional
[6] = tested on: Nannizzia gypsea; assay: Antimicrobial activity against Microsporum gypseum at 1 mg/mL by agar-well diffusion assay; type: functional
[7] = tested on: Saccharomyces cerevisiae; assay: Antimicrobial activity against Saccharomyces cerevisiae at 1 mg/mL by agar-well diffusion assay; type: functional, organism-based
[8] = tested on: Escherichia coli; assay: Antimicrobial activity against Escherichia coli at 1 mg/mL by agar-well diffusion assay; type: functional, organism-based
[9] = tested on: Staphylococcus aureus; assay: Antimicrobial activity against Staphylococcus aureus at 1 mg/mL by agar-well diffusion assay; type: functional, organism-based
[10] = tested on: Bacillus subtilis; assay: Antimicrobial activity against Bacillus subtilis at 1 mg/mL by agar-well diffusion assay; type: functional, organism-based
[11] = tested on: Pseudomonas aeruginosa; assay: Antimicrobial activity against Pseudomonas aeruginosa at 1 mg/mL by agar-well diffusion assay; type: functional, organism-based
[12] = tested on: Mycobacterium intracellulare; assay: Antimicrobial activity against Mycobacterium intracellular at 1 mg/mL by agar-well diffusion assay; type: functional
[13] = tested on: Candida albicans; assay: (§1) Antifungal activity against Candida albicans NIH B311 infected in mouse assessed as reduction in number of recovered colony-forming units assessed per mg of kidney at 20 mg/kg, ip administered 7 and 24 hrs after infection measured 16 hrs after final injection by tenfold serial dilution method relative to control; type: functional, organism-based; set-up: dose 20 mg/kg
[14] = tested on: Candida albicans; assay: as §1, with “7” for “20”; type: functional; set-up: scale not given: the % may be the effect or the level left; conditions: route intraperitoneal
[15] = tested on: Candida albicans; assay: as §1, with “3” for “20”; type: functional; set-up: scale not given: the % may be the effect or the level left; conditions: route intraperitoneal
[16] = tested on: Candida albicans; assay: as §1, with “mouse tissue-burden model” for “mouse”, “3.5” for “20”; type: functional; set-up: scale not given: the % may be the effect or the level left; conditions: route intraperitoneal

## COC(=O)C1=CC[C@@]23CC[C@@H]([C@@](C)(/C=C/C=C(\C)C(=O)O[C@@H]4O[C@H](CO)[C@@H](O)[C@H](O)[C@H]4O)OC2=O)[C@@]3(OC(C)=O)CC1
[1]
  zone of inhibition at 1000 µg/mL: < 1 mm
[2]
  Activity: inactive
[3]
  Activity: inactive
[4]
  Activity: inactive
[5]
  Activity: inactive
[6]
  Activity: inactive
[7]
  Activity: inactive
[8]
  Activity: inactive
[9]
  Activity: inactive
[10]
  Activity: inactive
[11]
  Activity: inactive
[12]
  Activity: inactive
[13]
  Activity: inactive
[14]
  Activity: 46.59%
[15]
  Activity: 9.91%
[16]
  Activity: 10%
